MIC and Ratio data for 16 compounds are collected here from ChEMBL document CHEMBL1921693, “Efficient synthesis and in vitro antitubercular activity of 1,2,3-triazoles as inhibitors of Mycobacterium tuberculosis” (2011).

Experiment [1] has as its system Mycobacterium tuberculosis. The experiment can be described thus: Antituberculosis activity against Mycobacterium tuberculosis H37Rv by agar dilution method. The class given is functional.
In experiment [2] the test system is Mycobacterium tuberculosis. The experiment is described as follows: Ratio of ethambutol MIC to compound MIC for Mycobacterium tuberculosis H37Rv. It counts as functional.

Converted amounts (≈) assume the structure as drawn.

For orientation: MIC means the smallest concentration in the dilution series that meets the test's criterion for growth inhibition. The low end stands for inhibition by little substance, the high end for a need for much substance. In the case of `CCOC(=O)c1nnn(Cc2ccccc2)c1C(=O)OCC`, the MIC in experiment [1] came to 12.5 mg/L (≈ 41.2 µM).
Still for that read-out and setting: next, `CCOC(=O)c1nnn(CC(=O)c2ccccc2)c1C(=O)OCC`: 3.13 mg/L (≈ 9.45 µM).
In turn, `CCOC(=O)c1nnn(CC(=O)c2ccc(OC)cc2)c1C(=O)OCC` had an MIC in experiment [1] of 6.25 mg/L (≈ 17.3 µM).
Consider `CCOC(=O)c1nnn(CC(=O)c2ccc(Br)cc2)c1C(=O)OCC`, for which it took 1.56 mg/L (≈ 3.8 µM) to inhibit growth in experiment [1] (MIC). The Ratio in experiment [2] turned out to be 2.08.
In turn, `CCOC(=O)c1nnn(CC(=O)c2ccc(Cl)cc2)c1C(=O)OCC` returned an MIC in experiment [1] of 3.13 mg/L (≈ 8.56 µM).
In experiment [1], `CCOC(=O)c1nnn(CC(=O)OC)c1C(=O)OCC` had an MIC of more than 25 mg/L.
The same measure, in the same setting: the figure for `CCOC(=O)Cn1nnc(C(=O)OCC)c1C(=O)OCC` is more than 25 mg/L; for `COC(=O)c1nnn(Cc2ccccc2)c1C(=O)OC` it is 25 mg/L (≈ 90.8 µM); for `COC(=O)c1nnn(CC(=O)c2ccccc2)c1C(=O)OC` it is 12.5 mg/L (≈ 41.2 µM).
The same measure, in the same setting: next, `COC(=O)c1nnn(CC(=O)c2ccc(OC)cc2)c1C(=O)OC`: 12.5 mg/L (≈ 37.5 µM).
As to `COC(=O)c1nnn(CC(=O)c2ccc(Br)cc2)c1C(=O)OC`, the MIC in experiment [1] was determined as 3.13 mg/L (≈ 8.19 µM).
The same measure, in the same setting: next, `COC(=O)c1nnn(CC(=O)c2ccc(Cl)cc2)c1C(=O)OC`: 6.25 mg/L (≈ 18.5 µM); `COC(=O)Cn1nnc(C(=O)OC)c1C(=O)OC`: more than 25 mg/L.
Consider `CCOC(=O)Cn1nnc(C(=O)OC)c1C(=O)OC`, for which, in experiment [1], the MIC was more than 25 mg/L.
Take `CC[C@@H](CO)NCCN[C@@H](CC)CO` [ETHAMBUTOL]: in experiment [1], the MIC was determined as 3.25 mg/L (≈ 15.9 µM).
On the same count and under the same terms, the figure for `NNC(=O)c1ccncc1` [ISONIAZID] is 0.75 mg/L (≈ 5.47 µM).
